According to patent publication US9439422B2, “Use of macrocyclic picolinamides as fungicides” (DOW AGROSCIENCES LLC, priority 2013, dated 2016):
Like-named read-outs stand apart in the source and are kept apart here.

How the values were obtained:
[1] = test system: Puccinia triticina; Synonym: Puccinia recondite f. sp. tritici; assay: Wheat Brown Rust (PUCCRT) disease control on wheat seedlings; type: in vivo; conditions: for pest or weed control at 100 ppm: rate 100 ppm; for pest or weed control at 121.5 g/ha: rate 121.5 g/H
Protocol: Technical grades of materials were dissolved in acetone, which were then mixed with nine volumes of water containing 110 ppm Triton X-100. The fungicide solutions were applied onto wheat seedlings using an automated booth sprayer to run-off. All sprayed plants were allowed to air dry prior to further handling. All fungicides were evaluated using the aforementioned method for their activity vs. all target diseases. Wheat leaf blotch and brown rust activity were also evaluated using track spray applications, in which case the fungicides were formulated as EC formulations, containing 0.1% Trycol 5941 in the spray solutions. Wheat plants (variety Yuma) were grown from seed in a greenhouse in 50% mineral soil/50% soil-less Metro mix until the first leaf was fully emerged, with 7-10 seedlings per pot. These plants were inoculated with an aqueous spore suspension of Septoria tritici either prior to or after fungicide treatments. After inoculation the plants were kept in 100% relative humidity (one day in a dark dew chamber followed by two to three days in a lighted dew chamber at 20° C.) to permit spores to germinate and infect the leaf. The plants were then transferred to a greenhouse set at 20° C. for disease to develop. When disease symptoms were fully expressed on the 1st leaves of untreated plants, infection levels were assessed on a scale of 0 to 100 percent disease severity. Percent disease control was calculated using the ratio of disease severity on treated plants relative to untreated plants. Evaluation of Fungicidal Activity: Wheat Brown Rust (Puccinia triticina; Synonym: Puccinia recondite f. sp. tritici; Bayer Code PUCCRT) Wheat plants (variety Yuma) were grown from seed in a greenhouse in 50% mineral soil/50% soil-less Metro mix until the first leaf was fully emerged, with 7-10 seedlings per pot. These plants were inoculated with an aqueous spore suspension of Puccinia triticina either prior to or after fungicide treatments. After inoculation the plants were kept in a dark dew room at 22° C. with 100% relative humidity overnight to permit spores to germinate and infect the leaf. The plants were then transferred to a greenhouse set at 24° C. for disease to develop. Fungicide formulation, application and disease assessment followed the procedures as described in the Example A.

[2] = test system: Mycosphaerella graminicola; Anamorph: Septoria tritici; assay: Leaf Blotch of Wheat (SEPTTR) disease control on wheat seedlings; type: in vivo; conditions: Zymoseptoria tritici; for pest or weed control at 100 ppm: rate 100 ppm; for pest or weed control at 121.5 g/ha: rate 121.5 g/H
Protocol: Evaluation of Fungicidal Activity: Leaf Blotch of Wheat (Mycosphaerella graminicola; Anamorph: Septoria tritici; Bayer Code […]) Technical grades of materials were dissolved in acetone, which were then mixed with nine volumes of water containing 110 ppm Triton X-100. The fungicide solutions were applied onto wheat seedlings using an automated booth sprayer to run-off. All sprayed plants were allowed to air dry prior to further handling. All fungicides were evaluated using the aforementioned method for their activity vs. all target diseases. Wheat leaf blotch and brown rust activity were also evaluated using track spray applications, in which case the fungicides were formulated as EC formulations, containing 0.1% Trycol 5941 in the spray solutions. Wheat plants (variety Yuma) were grown from seed in a greenhouse in 50% mineral soil/50% soil-less Metro mix until the first leaf was fully emerged, with 7-10 seedlings per pot. These plants were inoculated with an aqueous spore suspension of Septoria tritici either prior to or after fungicide treatments. After inoculation the plants were kept in 100% relative humidity (one day in a dark dew chamber followed by two to three days in a lighted dew chamber at 20° C.) to permit spores to germinate and infect the leaf. The plants were then transferred to a greenhouse set at 20° C. for disease to develop. When disease symptoms were fully expressed on the 1st leaves of untreated plants, infection levels were assessed on a scale of 0 to 100 percent disease severity. Percent disease control was calculated using the ratio of disease severity on treated plants relative to untreated plants.

[3] = 24 h, 1 Day Protectant, read-out: PUCCRT disease control, 1DP
[4] = 24 h, 1 Day Protectant, read-out: SEPTTR disease control, 1DP
[5] = 72 h, 3 Day Curative, read-out: SEPTTR disease control, 3DC
[6] = 72 h, 3 Day Curative, read-out: PUCCRT disease control, 3DC

Structure (SMILES) | pest or weed control at 100 ppm [1, 3] [%] | pest or weed control at 100 ppm [2, 4] [%] | pest or weed control at 100 ppm [2, 5] [%] | pest or weed control at 121.5 g/ha [1, 3] [%] | pest or weed control at 100 ppm [1, 6] [%] | pest or weed control at 121.5 g/ha [1, 6] [%] | pest or weed control at 121.5 g/ha [2, 4] [%] | pest or weed control at 121.5 g/ha [2, 5] [%]
COc1ccnc(C(=O)N[C@H]2COC[C@H](Cc3ccc(C(F)(F)F)cc3)[C@@H](OC(=O)C(C)C)[C@H](C)OC2=O)c1O [Compound F30] | 80 to 100 | 80 to 100 | 0 to 80 | – | – | – | – | –
CCOCC(=O)OCOc1c(OC)ccnc1C(=O)N[C@H]1COC[C@H](CC2CCCC2)[C@@H](OCC(C)C)[C@H](C)OC1=O [Compound F121] | 80 to 100 | 80 to 100 | 80 to 100 | 80 to 100 | 80 to 100 | 80 to 100 | 80 to 100 | 80 to 100
